We go through four compounds from patent US20240108591A1, “OR2L13 AGONISTS TO TREAT CVD WITH DY[…] ACTIVATION” (The Cleveland Clinic Foundation, priority 2022, published 2024).

SMILES strings stand for the structures.

The nature of data set [1]: Circulating platelet number in treated mice. In kind it is in vivo, mouse. Particulars: 100 mg/Kg/day i.p. for three days, FVB/tac mice. Here is the method:
To ascertain whether exogenous (−) carvone in mice impacted platelet reactivity and thrombosis in vivo, FVB/tac mice were administered (−) carvone at a dose of 100 mg/Kg/day for three days by i.p. injection. Platelets were then isolated from mice and thrombin-stimulated ex vivo. Thrombin-induced platelet degranulation ex vivo was inhibited in platelets from (−) carvone-treated mice (FIG. 7C). […] This effect is consistent with adequate absorption and distribution of (−) carvone to attenuate platelet activation and thrombosis in vivo.

The subject of data set [2] is healthy platelets. Put plainly: Platelet calcium transients (Fura-2 fluorescence). Particulars: 300 μM, n=5. In kind it is cell-based, human. An excerpt: (§1) FIG. 5. A conserved olfactory receptor signal transduction pathway in healthy platelets. A. Proposed platelet OR2L13 signal transduction. Levo-carvone (L-Carvone) binds to OR2L13 on platelets to generate cAMP through adenylyl cyclase activation, and cAMP changes the cytosolic concentration of calcium (Ca 2+) directly and chloride conductance (C1^−) while inhibiting platelet reactivity through known, well-described mechanisms involving protein kinase (PKA). […] C. […] Data are mean±SEM (n=4, MQAE fluorescence). *P=0.0134 (−) carvone vs control by student's t-test. D. Carvone stimulation (300 μM) of healthy platelets promotes local brief calcium transients 20-80% above baseline is sustained compared with thrombin which attenuates over time (n=5 human platelets, Fura-2 fluorescence). MQAE=-[ethoxycarbonylmethyl]-6-methoxy-quinoliniumbromide. Arrowhead=drug addition.
(§2) ORs and downstream anoctamin proteins are generally expressed in afferent olfactory neurons (23). ORs are GPCRs positively linked to AC to increase cAMP (24), triggering […] as a downstream calcium-sensitive chloride channel (25). If this signal transduction pathway is conserved in platelets, OR2L13 activation should generate cAMP in platelets coincident with changes in platelet Cl^−- and Ca^2+ flux (schematic, FIG. 5A). […]

In data set [3] the test system is platelets from FVB/tac mice. The experiment in a line: Ex vivo thrombin-stimulated platelet activation after in vivo dosing. Also on record: species or system mouse. Particulars: 100 mg/Kg/day i.p. for three days. Here is the method:
(§3) FIG. 7. Biomechanical platelet activation is inhibited by OR2L13 agonists. A. In vitro exposure of healthy platelets to steady laminar flow (S-flow) or disturbed flow (D-flow) for 60 mins after 30 minute pre-treatment with vehicle or (−) Carvone (300 μM). Platelet activation quantified by surface p-selectin expression as mean fluorescence intensity (MFI)±SEM, n=3 in each group by 2-way ANOVA. B. Calcein green-loaded healthy human blood flowing through a collagen-I coated microfluidics chamber at 40 dyn/cm^2 and imaged by confocal microscopy for adherent thrombus (green puncta) at three minutes. Data are represented as mean thrombus area of random fields±SEM, n=6-7 in each group following 30 minutes of vehicle (0.25% DMSO) or (−) carvone treatment (300 μM). Differences between groups was assessed by the student's t-test, * P<0.0001 vs. vehicle. C. WT Fvb/tac mice were given 100 mg/Kg/day (−) carvone IP for 3 days. Platelets were isolated and stimulated in the presence of thrombin. […] D. Time to hemostasis in mice treated with (−) carvone following surgical amputation of tail tip in seconds±SEM, n=6-9 in each group, *P=0.0046 vs. vehicle by Mann Whitney U.
(§4) To ascertain whether exogenous (−) carvone in mice impacted platelet reactivity and thrombosis in vivo, FVB/tac mice were administered (−) carvone at a dose of 100 mg/Kg/day for three days by i.p. injection. […]

Data set [4] relates to MMP2. Put plainly: Platelet lysate MMP2 activity by zymography in AAA model. Particulars: isolated platelets from treated wild-type mice, week 4 following AAA.
For data set [5], the system named is healthy platelets. Put plainly: Platelet chloride efflux (MQAE fluorescence). In kind it is cell-based, human. Conditions: 300 μM, n=4.
Description: as §1, §2

For data set [6], the system named is healthy platelets. Put plainly: Flow cone and plate exposure to S-flow or D-flow, surface p-selectin by FACS. Particulars: 300 μM, 30 minute pre-treatment, 60 mins flow. Type of data set: cell-based, human. The method, then:
(§5) FIG. 7. Biomechanical platelet activation is inhibited by OR2L13 agonists. A. In vitro exposure of healthy platelets to steady laminar flow (S-flow) or disturbed flow (D-flow) for 60 mins after 30 minute pre-treatment with vehicle or (−) Carvone (300 μM). Platelet activation quantified by surface p-selectin expression as mean fluorescence intensity (MFI)±SEM, n=3 in each group by 2-way ANOVA. B. Calcein green-loaded healthy human blood flowing through a collagen-I coated microfluidics chamber at 40 dyn/cm^2 and imaged by confocal microscopy for adherent thrombus (green puncta) at three minutes. […] Differences between groups was assessed by the student's t-test, * P<0.0001 vs. vehicle. […]
(§6) Healthy human blood loaded with the fluorophore calcein green at room temperature (10 μM, pH 7.4 for 20 minutes), and incubated with odorant ligands for 30 minutes. […] D-flow shear cannot be accurately determined, though the same rotational speed was used with S-flow and D-flow always run alongside no flow (static) conditions for internal consistency. Following exposure to S-flow or D-flow, platelets were imaged by confocal microscopy, surface marker proteins were determined quantitatively by flow cytometry, and platelet proteins were assessed by Western blotting.
(§7) We next evaluated biomechanical platelet activation by S-flow and D-flow. […]
In general terms: In flow cytometry, cells or beads pass a laser one at a time.

Data set [7] concerns FVB/tac mice. The experiment in a line: Murine AAA model (topical elastase, BAPN, anti-TGFβ), aortic diameter by ultrasound.
Description: To augment aneurysm growth and induce ILT as described (26), anti—TGFβ blocking antibody (250 μg/mouse) was injected i.p. three times weekly starting the day of surgery. Each mouse (20-30 g in weight) is given 1 mL subcutaneous physiologic saline before surgical incision to account for insensible volume losses with gut externalization. Surgical procedures were conducted on a surgical heating pad at 37 ° C. Mice were anesthetized with isoflurane anesthesia (3% by nosecone) using oxygen as the carrier. Buprenorphine (0.05 mg/Kg) is given 30 minutes prior to skin incision. The area of incision is cleaned with 70% ethanol and betadine three times, and then infiltrated gently with local anesthesia (bupivacaine 5 mg/Kg SQ immediately prior to incision). A midline abdominal incision is made through the skin. The rectus sheath was divided at the Linea Alba. The intestines are exteriorized with a Qtip to the left of mouse onto gauze soaked with saline above and below to prevent drying. Whatman paper 6 mm×9 mm slices were placed on top of aorta below the bifurcation of the renal arteries. […] Hyperalgesia was assessed immediately after the procedure, and then twice daily for 48 hrs, and maintenance dose buprenorphine (0.05 mg/Kg) was given 8 hrs post-surgery, and then maintained at this dose for 48 hrs post-surgery. […]
For the next data set, the system named is human platelets. The experiment in a line: cAMP generation in human platelets. Particulars: 300 μM, 5 minutes, n=7. Type of data set: cell-based.
Description: as §1, §2

In another data set the test system is healthy human blood. The experiment in a line: Thrombus formation in collagen-I coated microfluidics chamber at high shear. In kind it is cell-based. Conditions: 300 μM, 30 minutes, 40 dyn/cm^2, three minutes. Here is the method: as §5, §6, §7
In data set [8] the test system is platelets from healthy humans. Put plainly: Light transmission aggregometry, ADP-induced platelet aggregation. Conditions: 30 minutes preincubation, ADP 0.1 μM. Type of data set: cell-based, human. The method, then:
FIG. 6. […] A. Platelets were isolated from healthy humans and preincubated with (−) carvone or (+) carvone (300 μM) for 30 minutes. Platelets were stimulated with ADP (0.1 μM) and light transmission aggregometry assessed platelet activation. Representative tracings for each agonist are shown. B. Carvone (300 μM) or forskolin (10 μM) incubation individually or together for 30 minutes followed by platelet stimulation with ADP (0.1 μM). Light transmission aggregometry assessed platelet activation. Representative aggregometry tracings are shown. V=vehicle, C=(−)carvone, F=forskolin. Differences between groups by one-way ANOVA followed by Bonferroni correction *P<0.0001, **P=0.0003, ***P<0.0001 vs. vehicle (n=3). C. […] D. Platelets isolated from healthy humans and preincubated with (−) carvone (0-500 μM) for 30 minutes then stimulated with ADP (0.1 μM). Light transmission aggregometry assessed platelet activation. Representative tracings for each agonist are shown. E. Summary data for each concentration of (−) carvone as mean±SEM by ANOVA in the presence of ADP stimulation (0.1 μM). The downward red arrow is ADP in the presence of vehicle to which all data points were compared. *P<0.05 vs. vehicle, n=3 in each group by ANOVA, followed by Bonferroni correction. The broken blue line indicates the log IC50 concentration of (−) carvone. […]

Data set [9] concerns FVB/tac mice. Put plainly: Tail bleeding time (time to hemostasis after tail tip amputation). In kind it is in vivo, mouse. Particulars: 100 mg/Kg/day i.p. for three days. The method, then: as §3, §4
Data set [10] concerns MMP2. Put plainly: Aortic lysate MMP activity by zymography in AAA model. Type of data set: in vivo, mouse. Particulars: daily 100 mg/Kg i.p., aortic lysate at week 4 following AAA. An excerpt: We previously reported that platelet matrix metalloproteinase (MMP) activity is increased in myocardial infarction (7, 27). Given that patients with AAA show less aortic growth and rupture when taking aspirin and growth and rupture are linked to MMP activity (10), we hypothesized that circulating platelets in patients with AAA may synthesize and secrete MMPs. Platelet MMP9 activity was enhanced and the MMP9 Tissue Inhibitor of MMP9 (TIMP1) was reduced in AAA compared to healthy conditions (FIG. 9A). Platelet MMP9 content was unchanged in healthy compared with AAA platelets. Aortic tissue as well as luminal thrombus from patients with infrarenal AAA compared to non-aneurysmal cadaveric aorta had increased expression and activity of MMP9.

The subject of data set [11] is clinical population with AAA. Particulars: large clinical population (ref 10); cited from earlier work.
The subject of another data set is patients with small AAA. Conditions: randomized clinical trial (ref 14); cited from earlier work.

For the compound `C=C(C)[C@@H]1CC=C(C)C(=O)C1` (single isomer, unassigned) [(−) carvone], the circulating platelet number result in data set [1] is on record as “without affecting the circulating platelet number”. The “local brief calcium transients above baseline” value in the data set on healthy platelets [2] is given as 20-80%.

On to `C=C(C)C1CC=C(C)C(=O)C1` (single isomer, unassigned; (-)) [(−) carvone], for which the “thrombin-induced platelet degranulation ex vivo” value in [3] is recorded as “inhibited”. In the data set with MMP2 [4], the “platelet MMP2 activity compared to control mice” value was “decreased”. Besides, in the data set on healthy platelets [5], the chloride efflux entry is “promotes chloride efflux”. The “S-flow / D-flow induced platelet activation (surface p-selectin)” value in the data set with healthy platelets [6] is on record as “attenuated only D-flow induced platelet activation”. In addition, in the data set with FVB/tac mice [7] (100 mg/Kg/day i.p. starting at day 7, fvb/tac mice), the “AAA growth (aortic diameter by ultrasound)” value is given as “attenuated AAA growth”. In the data set on human platelets, the “cAMP generation in platelets” value is given as “generates cAMP”. In addition, the “thrombosis in whole blood (thrombus area)” value in the data set with healthy human blood is reported as “attenuated”. In data set [8] (0-500 μM), the ADP-induced platelet aggregation result is reported as “blunted ADP-induced platelet aggregation dose-dependently”. The “anti-platelet effect, (−) versus (+) enantiomer” value in data set [8] (300 μM) is “more potent anti-platelet effect”. In addition, in the data set on FVB/tac mice [9], the tail bleeding times entry was “prolonged”. In the data set on MMP2 [10], the “MMP2 activity in the aorta” value was “decreased MMP2 activity in the aorta”.

Take `CC(=O)Oc1ccccc1C(=O)O` [aspirin, reference compound]: the “AAA growth (aortic diameter by ultrasound)” value in the data set on FVB/tac mice [7] (30 mg/L in drinking water starting at day 7, fvb/tac mice) is reported as “attenuated AAA growth similarly to aspirin”. In addition, the “AAA growth in patients” value in [11] is recorded as “limits AAA growth”.

As to `CCCSc1nc(N[C@@H]2C[C@H]2c2ccc(F)c(F)c2)c2nnn([C@@H]3C[C@H](OCCO)[C@@H](O)[C@H]3O)c2n1` [ticagrelor], the “AAA growth in patients” value with patients with small AAA is “did not alter AAA growth”.
